Reference: US20070219254A1, “Therapeutic Compounds: Pyridine N-Oxide Scaffold” (priority 2004, published 2007)
Where two headings read alike, the source gives them in different places.

How the values were obtained:
Human CB1 receptor [1] = target: T1, Human CB1 receptor (Homo sapiens, UniProt P21554); assay: hCB1 GTPγS binding; format: biochemical; settings: for Emax: maximal stimulation defined by 10 μM Win 55,212-2
T1 construct: purchased Receptor Biology
Method: Human CB1 receptor from Receptor Biology (hCB1) or human CB2 receptor membranes (BioSignal) are thawed at 37° C., passed 3 times through a 25-gauge blunt-end needle and diluted in the GTPγS binding buffer (50 mM Hepes, 20 mM NaOH, 100 mM NaCl, 1 mM EDTA, 5 mM MgCl2, pH 7.4, 0.1% BSA). The EC50 and Emax of the compounds of the invention are evaluated from 10-point dose-response curves done in 300 μl with the appropriate amount of membrane protein and 100000-130000 dpm of GTPg^35S per well (0.11-0.14 nM). The basal and maximal stimulated binding is determined in absence and presence of 1 μM (hCB2) or 10 μM (hCB1) Win 55,212-2 respectively. The membranes are pre-incubated for 5 minutes with 56.25 μM (hCB2) or 112.5 μM (hCB1) GDP prior to distribution in plates (15 μM (hCB2) or 30 μM (hCB1) GDP final). The plates are vortexed and incubated for 60 minutes at room temperature, filtered on Unifilters GF/B (presoaked in water) with the Tomtec or Packard harvester using 3 ml of wash buffer (50 mM Tris, 5 mM MgCl2, 50 mM NaCl, pH 7.0). The filters are dried for 1 hour at 55° C. The radioactivity (cpm) is counted in a TopCount (Packard) is after adding 65 μl/well of MS-20 scintillation liquid. Antagonist reversal studies are done in the same way except that (a) an agonist dose-response curve is done in the presence of a constant concentration of antagonist, or (b) an antagonist dose-response curve is done in the presence of a constant concentration of agonist.

Human CB1 receptor [2] = target: T1, Human CB1 receptor; assay: hCB1 receptor binding (3H-CP55,940 displacement)
Method: Human CB1 receptor from Receptor Biology (hCB1) or human CB2 receptor from BioSignal (hCB2) membranes are thawed at 37° C., passed 3 times through a 25-gauge blunt-end needle, diluted in the cannabinoid binding buffer (50 mM Tris, 2.5 mM EDTA, 5 mM MgCl2, and 0.5 mg/mL BSA fatty acid free, pH 7.4) and aliquots containing the appropriate amount of protein are distributed in 96-well plates. The IC50 of the compounds of the invention at hCB1 and hCB2 are evaluated from 10-point dose-response curves done with ^3H-CP55,940 at 20000 to 25000 dpm per well (0.17-0.21 nM) in a final volume of 300 μl. The total and non-specific binding are determined in the absence and presence of 0.2 μM of HU210 respectively. The plates are vortexed and incubated for 60 minutes at room temperature, filtered through Unifilters GF/B (presoaked in 0.1% polyethyleneimine) with the Tomtec or Packard harvester using 3 mL of wash buffer (50 mM Tris, 5 mM MgCl2, 0.5 mg BSA pH 7.0). The filters are dried for 1 hour at 55° C. The radioactivity (cpm) is counted in a TopCount (Packard) after adding 65 μl/well of MS-20 scintillation liquid.
Based on the above assays, the dissociation constant (Ki) for a particular compound of the invention towards a particular receptor is determined using the following equation: […]
Wherein IC50 is the concentration of the compound of the invention at which 50% displacement has been observed;
[rad] is a standard or reference radioactive ligand concentration at that moment; and
Kd is the dissociation constant of the radioactive ligand towards the particular receptor.

[3] = hCB1 membranes, GTPγ35S, read-out: EC50 (hCB1)
[4] = hCB1 membranes, 3H-CP55,940, Ki=IC50/(1+[rad]/Kd), read-out: Ki (hCB1)

T1 sequence (P21554 whole entry): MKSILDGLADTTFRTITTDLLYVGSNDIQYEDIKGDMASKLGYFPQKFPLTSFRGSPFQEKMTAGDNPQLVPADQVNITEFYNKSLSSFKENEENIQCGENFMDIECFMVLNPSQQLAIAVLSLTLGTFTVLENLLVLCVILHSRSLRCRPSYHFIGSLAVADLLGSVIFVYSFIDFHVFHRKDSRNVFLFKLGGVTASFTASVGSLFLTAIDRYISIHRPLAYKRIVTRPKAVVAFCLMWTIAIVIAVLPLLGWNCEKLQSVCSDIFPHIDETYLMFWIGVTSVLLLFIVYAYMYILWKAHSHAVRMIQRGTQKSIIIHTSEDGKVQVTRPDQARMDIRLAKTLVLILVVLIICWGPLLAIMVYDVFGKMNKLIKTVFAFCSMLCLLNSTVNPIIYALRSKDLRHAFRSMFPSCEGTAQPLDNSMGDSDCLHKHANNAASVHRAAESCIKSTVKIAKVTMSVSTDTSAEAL

`Cc1ccc(C(=O)Nc2ccc[n+]([O-])c2C(=O)NCC2CCC2)c2ccccc12` [Example 2, N-(Cyclobutylmethyl)-3-[[(4-methyl-1-naphthalenyl)carbonyl]amino]-1-oxide-2-pyridinecarboxamide] was tested, and the EC50 (Human CB1 receptor [1]; [3]) was 167 nM, the Emax (Human CB1 receptor [1]; hCB1 membranes) was 106% and the Ki (Human CB1 receptor [2]; [4]) was 18 nM.
In the case of `O=C(Nc1ccc[n+]([O-])c1C(=O)NCC1CCCCC1)c1cccc2ccccc12` [Example 7, N-(Cyclohexylmethyl)-3-[(1-naphthalenylcarbonyl)amino]-1-oxide-2-pyridinecarboxamide], the EC50 (Human CB1 receptor [1]) is reported as 506 nM, the Emax (Human CB1 receptor [1]; hCB1 membranes) is reported as 128% and the Ki (Human CB1 receptor [2]) is reported as 47 nM.
With `Cc1ccc(C(=O)Nc2ccc[n+]([O-])c2C(=O)NCC2CCCCC2)c2ccccc12` [Example 8, N-(Cyclohexylmethyl)-3-[(4-methyl-1-naphthalenylcarbonyl)amino]-1-oxide-2-pyridinecarboxamide] the EC50 (Human CB1 receptor [1]; [3]) was 191 nM, the Emax (Human CB1 receptor [1]; hCB1 membranes) was 122% and the Ki (Human CB1 receptor [2]; [4]) was 42 nM.
